{"source": "patent US20220064214A1", "about": "“NOVEL PEPTIDES AND USES THEREOF” (CENNA BIOSCIENCES INC., priority 2019, published 2022)", "key": {"[1]": {"assay": "PK analysis of 8M2D in transgenic mice (APPSWE), plasma", "conditions": "mouse, in vivo, sc", "description": "Pharmacokinetics (PK) of 8M2D was further analyzed with various doses at days 1 and 13 in transgenic mice (APPSWE (B6; SJL 2576 Kha; Taconic)). See Hsiao et al., Correlative memory deficits, Aβ elevation, and amyloid plaques in transgenic mice. Science 274:99-102 (1996); and Haugabook et al., Reduction of Abeta accumulation in the Tg2576 animal model of Alzheimer's disease after oral administration of the phosphatidyl-inositol kinase inhibitor wortmannin. Faseb J 15:16-18 (2001)."}, "Aβ40": {"tested_on": "Aβ40", "assay": "Efficacy in reducing Aβ40 in rat plasma (ELISA)", "type": "in vivo", "conditions": "for reduction in Aβ40 / Percent Decrease in Aβ 40 in Rat Plasma: 10 mg/kg SC; for Percent Decrease in Aβ 40 in Rat Plasma: mean of 3 rats, negative = decrease", "description": "Blood was collected through jugular vein cannulas, and the samples were collected into tubes with K2EDTA. After centrifuging at a temperature of 2 to 8° C. at 4,000×g for 5 minutes, the resulting plasma was split into equal aliquots, frozen, and stored at −60 to −80° C. One aliquot was for PK analysis and the other was for Aβ analysis (see Example 4).\nRats (n=3 per peptide) were administered with P8, 8M1D, or 8M2D (10 mg/kg) subcutaneously, and plasma were collected at 0, 6, 12, and 24 h after dosing and Aβ40 analysis was carried out by ELISA (Invitrogen)."}, "[2]": {"assay": "Delivery to brain in transgenic mice (brain concentrations)", "type": "in vivo", "design": "Brain Concentration / Brain Concentration, Mean: unit not given here", "description": "Critical to the development of any therapeutic for diseases like AD is the requirement that it can be delivered to the brain. Delivery to brain and efficacy of P8 and 8M2D in reducing Aß was analyzed in the transgenic mice described in Section 6.3 above. […]"}, "Aβ": {"tested_on": "Aβ", "assay": "Reduction of Aβ in retinal cells differentiated from iPSC derived from Alzheimer's disease patients", "type": "cell-based", "description": "The accumulation of Aβ in the retina was studied in this example. Retinal cells were differentiated from induced pluripotent stem (iPSC) cells derived from Alzheimer's disease patients."}}, "note": "“Also recorded” adds a separate entry of the source. Like-named read-outs stand apart in the source and are kept apart here. Square brackets hold non-standard residues; d marks the D form. Peptide text beside a SMILES is read from it.", "data": [{"smiles": "CC(=O)N[C@H](CC(=O)O)C(=O)N[C@@H](CCC(=O)O)C(=O)N[C@@H](CCC(=O)O)C(=O)N[C@@H](CCC(=O)O)C(=O)N[C@@H](CC(=O)O)C(=O)N[C@@H](CCC(=O)O)C(=O)N[C@@H](CCC(=O)O)C(=O)N[C@@H](CC(C)C)C(N)=O", "note": "[8M2D, Ac-dEEEDEEL-NH2] (Ac-[dD]EEEDEEL-NH2)", "values": [{"measurement": "Vd/F", "setting": "[1]; 10 mg/kg, Day 13, 10 mg/kg, read-out: Vz/F", "result": 10.2, "unit": "L/kg"}, {"measurement": "half-life", "setting": "[1]; 10 mg/kg, Day 13, 10 mg/kg, read-out: t1/2 (converted)", "result": 8.4, "unit": "h"}, {"measurement": "AUC(0-t)", "setting": "[1]; 50 mg/kg, Day 1, 50 mg/kg, read-out: AUClast", "result": 70.5, "unit": "µg·h/mL"}, {"measurement": "CL/F", "setting": "[1]; 50 mg/kg, Day 1, 50 mg/kg, read-out: Cl/F", "result": 11.8, "unit": "mL/min/kg"}, {"measurement": "Cmax", "setting": "[1]; 50 mg/kg, Day 1, 50 mg/kg, read-out: Cmax", "result": 111, "unit": "µg/mL"}, {"measurement": "Tmax", "setting": "[1]; 50 mg/kg, Day 1, 50 mg/kg, read-out: Tmax", "result": 0.17, "unit": "h"}, {"measurement": "Vd/F", "setting": "[1]; 50 mg/kg, Day 1, 50 mg/kg, read-out: Vz/F", "result": 7.59, "unit": "L/kg"}, {"measurement": "half-life", "setting": "[1]; 50 mg/kg, Day 1, 50 mg/kg, read-out: t1/2 (converted)", "result": 7.4, "unit": "h"}, {"measurement": "AUC(0-t)", "setting": "[1]; 50 mg/kg, Day 13, 50 mg/kg, read-out: AUClast", "result": 49.7, "unit": "µg·h/mL"}, {"measurement": "CL/F", "setting": "[1]; 50 mg/kg, Day 13, 50 mg/kg, read-out: Cl/F", "result": 12.9, "unit": "mL/min/kg"}, {"measurement": "Cmax", "setting": "[1]; 50 mg/kg, Day 13, 50 mg/kg, read-out: Cmax", "result": 73, "unit": "µg/mL"}, {"measurement": "Tmax", "setting": "[1]; 50 mg/kg, Day 13, 50 mg/kg, read-out: Tmax", "result": 0.17, "unit": "h"}, {"measurement": "Vd/F", "setting": "[1]; 50 mg/kg, Day 13, 50 mg/kg, read-out: Vz/F", "result": 148, "unit": "L/kg"}, {"measurement": "half-life", "setting": "[1]; 50 mg/kg, Day 13, 50 mg/kg, read-out: t1/2 (converted)", "result": 130, "unit": "h"}, {"measurement": "AUC(0-t)", "setting": "[1]; 250 mg/kg, Day 1, 250 mg/kg, read-out: AUClast", "result": 176, "unit": "µg·h/mL"}, {"measurement": "CL/F", "setting": "[1]; 250 mg/kg, Day 1, 250 mg/kg, read-out: Cl/F", "result": 23.6, "unit": "mL/min/kg"}, {"measurement": "Cmax", "setting": "[1]; 250 mg/kg, Day 1, 250 mg/kg, read-out: Cmax", "result": 207, "unit": "µg/mL"}, {"measurement": "Tmax", "setting": "[1]; 250 mg/kg, Day 1, 250 mg/kg, read-out: Tmax", "result": 0.17, "unit": "h"}, {"measurement": "Vd/F", "setting": "[1]; 250 mg/kg, Day 1, 250 mg/kg, read-out: Vz/F", "result": 5.84, "unit": "L/kg"}, {"measurement": "half-life", "setting": "[1]; 250 mg/kg, Day 1, 250 mg/kg, read-out: t1/2 (converted)", "result": 2.9, "unit": "h"}, {"measurement": "AUC(0-t)", "setting": "[1]; 250 mg/kg, Day 1, Mean over the 10, 50 and 250 mg/kg doses (N 3), read-out: AUClast, Mean", "result": 86.4, "unit": "µg·h/mL"}, {"measurement": "CL/F", "setting": "[1]; 250 mg/kg, Day 1, Mean over the 10, 50 and 250 mg/kg doses (N 3), read-out: Cl/F, Mean", "result": 16.1, "unit": "mL/min/kg"}, {"measurement": "Cmax", "setting": "[1]; 250 mg/kg, Day 1, Mean over the 10, 50 and 250 mg/kg doses (N 3), read-out: Cmax, Mean", "result": 111, "unit": "µg/mL"}, {"measurement": "Tmax", "setting": "[1]; 250 mg/kg, Day 1, Mean over the 10, 50 and 250 mg/kg doses (N 3), read-out: Tmax, Mean", "result": 0.167, "unit": "h"}, {"measurement": "Vd/F", "setting": "[1]; 250 mg/kg, Day 1, Mean over the 10, 50 and 250 mg/kg doses (N 3), read-out: Vz/F, Mean", "result": 7.42, "unit": "L/kg"}, {"measurement": "half-life", "setting": "[1]; 250 mg/kg, Day 1, Mean over the 10, 50 and 250 mg/kg doses (N 3), read-out: t1/2, Mean (converted)", "result": 6.06, "unit": "h"}, {"measurement": "AUC(0-t)", "setting": "[1]; 250 mg/kg, Day 13, 250 mg/kg, read-out: AUClast", "result": 290, "unit": "µg·h/mL"}, {"measurement": "CL/F", "setting": "[1]; 250 mg/kg, Day 13, 250 mg/kg, read-out: Cl/F", "result": 13.5, "unit": "mL/min/kg"}, {"measurement": "Cmax", "setting": "[1]; 250 mg/kg, Day 13, 250 mg/kg, read-out: Cmax", "result": 278, "unit": "µg/mL"}, {"measurement": "Tmax", "setting": "[1]; 250 mg/kg, Day 13, 250 mg/kg, read-out: Tmax", "result": 0.17, "unit": "h"}, {"measurement": "Vd/F", "setting": "[1]; 250 mg/kg, Day 13, 250 mg/kg, read-out: Vz/F", "result": 33.4, "unit": "L/kg"}, {"measurement": "half-life", "setting": "[1]; 250 mg/kg, Day 13, 250 mg/kg, read-out: t1/2 (converted)", "result": 29, "unit": "h"}, {"measurement": "AUC(0-t)", "setting": "[1]; 250 mg/kg, Day 13, Mean over the 10, 50 and 250 mg/kg doses (N 3), read-out: AUClast, Mean", "result": 117, "unit": "µg·h/mL"}, {"measurement": "CL/F", "setting": "[1]; 250 mg/kg, Day 13, Mean over the 10, 50 and 250 mg/kg doses (N 3), read-out: Cl/F, Mean", "result": 13.5, "unit": "mL/min/kg"}, {"measurement": "Cmax", "setting": "[1]; 250 mg/kg, Day 13, Mean over the 10, 50 and 250 mg/kg doses (N 3), read-out: Cmax, Mean", "result": 121, "unit": "µg/mL"}, {"measurement": "Tmax", "setting": "[1]; 250 mg/kg, Day 13, Mean over the 10, 50 and 250 mg/kg doses (N 3), read-out: Tmax, Mean", "result": 0.167, "unit": "h"}, {"measurement": "Vd/F", "setting": "[1]; 250 mg/kg, Day 13, Mean over the 10, 50 and 250 mg/kg doses (N 3), read-out: Vz/F, Mean", "result": 63.8, "unit": "L/kg"}, {"measurement": "half-life", "setting": "[1]; 250 mg/kg, Day 13, Mean over the 10, 50 and 250 mg/kg doses (N 3), read-out: t1/2, Mean (converted)", "result": 56.5, "unit": "h"}, {"measurement": "reduction in Aβ40", "setting": "Aβ40; rat plasma, 12 hr post dosing", "result": "about 35%"}, {"measurement": "reduction in Aβ40", "setting": "Aβ40; rat plasma, 24 h post dosing", "result": "about 27%"}, {"measurement": "reduction of Aβ40 compared with the other peptides (in words)", "setting": "Aβ40; rat plasma, SC", "result": "more potent than P8 and 8M1D; also recorded: more effectively than P8 and 8M1D"}, {"measurement": "Percent Decrease in Aβ 40 in Rat Plasma", "setting": "Aβ40; 0 h", "result": 0.00, "unit": "%"}, {"measurement": "Percent Decrease in Aβ 40 in Rat Plasma", "setting": "Aβ40; 6 h", "result": "−26.62", "unit": "%"}, {"measurement": "Percent Decrease in Aβ 40 in Rat Plasma", "setting": "Aβ40; 12 h", "result": "−35.27", "unit": "%"}, {"measurement": "Percent Decrease in Aβ 40 in Rat Plasma", "setting": "Aβ40; 24 h", "result": "−27.36", "unit": "%"}, {"measurement": "delivery to the APPTg mouse brain (in words)", "setting": "[2]; SC administration", "result": "in sufficient amounts to reduce Aß in the brain"}, {"measurement": "Brain Concentration", "setting": "[2]; transgenic mice, SC, dose 10 mg/kg, individual animals", "result": "BQL"}, {"measurement": "Brain Concentration, Mean", "setting": "[2]; transgenic mice, SC, dose 50 mg/kg, N 2", "result": 9.06}, {"measurement": "Brain Concentration, Mean", "setting": "[2]; transgenic mice, SC, dose 250 mg/kg, N 5", "result": 15.4}, {"measurement": "production of Aβ in retinal cells in the presence of the peptide (in words)", "setting": "Aβ", "result": "reduced"}]}]}
